Literature values in patent US11576924B2, “Compounds for the prevention and treatment of diseases and the use thereof” (Galectin Sciences, LLC, priority 2017, dated 2023).

Tests used:
galectin 3 = galectin 3 (Homo sapiens, UniProt P17931)
lung fibrosis = settings: pulmonary administration (intra-tracheal instillation or nebulizers)

Chain of galectin 3 (P17931 whole entry, species assumed): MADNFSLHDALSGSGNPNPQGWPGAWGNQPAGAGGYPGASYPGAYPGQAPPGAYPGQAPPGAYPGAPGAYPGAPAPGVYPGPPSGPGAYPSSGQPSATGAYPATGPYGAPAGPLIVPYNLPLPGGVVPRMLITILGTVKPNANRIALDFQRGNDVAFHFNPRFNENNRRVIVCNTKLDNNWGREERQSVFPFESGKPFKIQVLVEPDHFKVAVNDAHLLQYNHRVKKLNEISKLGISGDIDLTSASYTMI

Q: What does the source list for `OC[C@H]1O[C@@H](S[C@@H]2O[C@H](CO)[C@H](O)[C@H](n3cc(-c4cccc(F)c4)nn3)[C@H]2O)[C@H](O)[C@@H](n2cc(-c3cccc(F)c3)nn2)[C@H]1O` [TD-139]?
A: binding to galectin 3 (galectin 3): bind to galectin 3; efficacy in mouse model of lung fibrosis (lung fibrosis): effective in a mouse model of lung fibrosis
